The text below walks through data of patent publication US12685719B2, “Treatment of breast cancer with selective androgen receptor modulators and cyclin-dependent kinase 4/6 inhibitors” (UNIVERSITY OF TENNESSEE RESEARCH FOUNDATION, priority 2012, dated 2026).

Common to all, as to format: cell-based
The target of one assay is T1, AR (Homo sapiens, UniProt P10275).
T1 construct: expressed in transfected cells; host or cells: MDA-MB-231
Put plainly: AR transactivation (GRE-LUC luciferase) in MDA-MB-231 cells. To be noted: cells transfected with AR and GRE-LUC. As for the experimental part: Though AR transactivation assay was performed in HEK-293 cells, the ability of ligands to function as agonists or antagonists depends on cellular microenvironment. […] The cells were treated 24 h after transfection and luciferase assay performed 48 h after transfection.

The next assay has as its target T2, ER-α (Rattus norvegicus, UniProt P06211).
T2 construct: expressed in transfected cells
T2 sequence (P06211 1-600): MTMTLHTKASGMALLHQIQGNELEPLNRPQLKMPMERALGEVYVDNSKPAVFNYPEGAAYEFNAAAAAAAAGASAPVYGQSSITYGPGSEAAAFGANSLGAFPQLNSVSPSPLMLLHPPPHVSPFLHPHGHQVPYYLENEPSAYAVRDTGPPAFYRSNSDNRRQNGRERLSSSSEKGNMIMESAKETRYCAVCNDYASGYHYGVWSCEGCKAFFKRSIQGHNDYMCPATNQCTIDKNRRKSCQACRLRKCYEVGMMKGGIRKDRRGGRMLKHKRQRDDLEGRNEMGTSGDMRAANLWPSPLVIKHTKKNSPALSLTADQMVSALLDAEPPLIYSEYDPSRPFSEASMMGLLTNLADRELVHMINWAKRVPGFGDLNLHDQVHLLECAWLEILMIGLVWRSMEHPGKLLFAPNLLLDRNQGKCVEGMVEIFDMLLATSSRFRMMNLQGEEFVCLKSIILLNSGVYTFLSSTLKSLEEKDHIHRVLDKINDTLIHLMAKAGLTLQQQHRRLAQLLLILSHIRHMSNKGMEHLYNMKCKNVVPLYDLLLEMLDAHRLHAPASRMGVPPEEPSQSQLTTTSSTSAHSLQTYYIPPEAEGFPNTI
Put plainly: Transcriptional activation (luciferase) in HEK-293 cells, ER-α. Set-up: activation of ER-α: dose or concentration left out as unconfirmed. The procedure: (§1) Rat GR, MR, PR, ER-α and ER-β were individually cloned into a pCR3.1 vector backbone. Sequencing was performed to verify the absence of any mutations. HEK-293 cells were plated at 90,000 cells per well of a 24 well plate in Dulbecco's Minimal Essential Media supplemented with 5% charcoal-stripped FBS. […] Luciferase assays were performed 48 h after transfection. Transcriptional activation values are represented as firefly luciferase normalized to Renilla luciferase.

The target of the next assay is T3, GR (Rattus norvegicus, UniProt P06536).
T3 construct: expressed in transfected cells
T3 sequence (P06536 1-795): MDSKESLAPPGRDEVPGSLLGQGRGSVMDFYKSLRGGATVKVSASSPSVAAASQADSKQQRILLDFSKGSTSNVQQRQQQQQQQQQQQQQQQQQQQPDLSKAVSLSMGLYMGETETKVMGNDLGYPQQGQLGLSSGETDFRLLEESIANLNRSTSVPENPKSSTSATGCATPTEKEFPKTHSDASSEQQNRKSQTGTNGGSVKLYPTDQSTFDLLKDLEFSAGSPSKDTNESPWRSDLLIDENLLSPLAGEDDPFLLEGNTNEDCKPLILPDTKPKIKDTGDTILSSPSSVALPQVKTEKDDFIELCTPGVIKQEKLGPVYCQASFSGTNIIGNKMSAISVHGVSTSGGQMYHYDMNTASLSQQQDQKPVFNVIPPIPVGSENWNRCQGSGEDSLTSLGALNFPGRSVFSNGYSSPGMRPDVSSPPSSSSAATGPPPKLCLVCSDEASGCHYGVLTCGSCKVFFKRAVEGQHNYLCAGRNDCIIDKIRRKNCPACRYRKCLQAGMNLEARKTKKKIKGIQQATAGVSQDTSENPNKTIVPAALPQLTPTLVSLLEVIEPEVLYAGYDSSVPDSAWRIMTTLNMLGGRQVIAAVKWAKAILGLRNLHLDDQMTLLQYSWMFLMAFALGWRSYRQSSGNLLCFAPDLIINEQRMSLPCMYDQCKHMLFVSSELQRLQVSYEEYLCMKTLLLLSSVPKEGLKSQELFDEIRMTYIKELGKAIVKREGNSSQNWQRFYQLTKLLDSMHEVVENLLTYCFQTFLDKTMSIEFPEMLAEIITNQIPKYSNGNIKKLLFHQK
Description: Transcriptional activation (luciferase) in HEK-293 cells, GR. The procedure: as §1

The target of another assay is T4, MR (Rattus norvegicus, UniProt P22199).
T4 construct: expressed in transfected cells
T4 sequence (P22199 1-981): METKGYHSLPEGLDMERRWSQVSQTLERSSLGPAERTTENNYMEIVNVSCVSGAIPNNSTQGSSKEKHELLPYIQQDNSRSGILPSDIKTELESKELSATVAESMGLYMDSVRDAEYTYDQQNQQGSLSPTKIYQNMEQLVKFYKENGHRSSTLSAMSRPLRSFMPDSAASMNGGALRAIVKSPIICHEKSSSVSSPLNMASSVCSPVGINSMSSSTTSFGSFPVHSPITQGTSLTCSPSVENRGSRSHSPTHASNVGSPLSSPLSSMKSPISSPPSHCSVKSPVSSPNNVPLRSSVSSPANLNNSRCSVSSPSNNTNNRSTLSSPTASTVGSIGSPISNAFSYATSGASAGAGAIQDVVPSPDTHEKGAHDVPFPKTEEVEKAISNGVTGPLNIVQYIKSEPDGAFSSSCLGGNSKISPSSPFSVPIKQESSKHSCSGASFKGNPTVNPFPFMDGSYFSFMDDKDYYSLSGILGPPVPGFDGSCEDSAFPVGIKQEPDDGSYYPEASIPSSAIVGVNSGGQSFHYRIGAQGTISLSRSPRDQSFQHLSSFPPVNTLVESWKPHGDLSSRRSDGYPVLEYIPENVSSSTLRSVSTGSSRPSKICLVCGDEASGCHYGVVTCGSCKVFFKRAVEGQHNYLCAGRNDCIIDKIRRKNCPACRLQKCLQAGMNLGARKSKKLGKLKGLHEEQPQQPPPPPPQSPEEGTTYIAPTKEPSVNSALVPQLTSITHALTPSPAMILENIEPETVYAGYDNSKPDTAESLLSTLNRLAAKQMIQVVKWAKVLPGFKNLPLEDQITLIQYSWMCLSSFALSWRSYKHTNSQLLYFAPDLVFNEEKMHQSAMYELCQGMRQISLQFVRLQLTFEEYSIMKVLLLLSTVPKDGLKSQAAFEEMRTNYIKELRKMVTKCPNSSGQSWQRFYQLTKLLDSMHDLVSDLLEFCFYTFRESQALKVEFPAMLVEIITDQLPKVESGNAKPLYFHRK
Description: Transcriptional activation (luciferase) in HEK-293 cells, MR. The procedure: as §1

The subject of assay [1] is MDA-MB-231 breast cancer cells stably transfected with AR. Description: Proliferation of MDA-MB-231 cells stably transfected with AR (Coulter counter). The note with it: 6 days. As for the experimental part:
MDA-MB-231 cells stably transfected with AR using lentivirus were treated with the indicated ligands for 6 days and the number of cells counted using Coulter counter.

Setting [2] is: agonist mode, all the tested concentrations.

T1 sequence (P10275 whole entry): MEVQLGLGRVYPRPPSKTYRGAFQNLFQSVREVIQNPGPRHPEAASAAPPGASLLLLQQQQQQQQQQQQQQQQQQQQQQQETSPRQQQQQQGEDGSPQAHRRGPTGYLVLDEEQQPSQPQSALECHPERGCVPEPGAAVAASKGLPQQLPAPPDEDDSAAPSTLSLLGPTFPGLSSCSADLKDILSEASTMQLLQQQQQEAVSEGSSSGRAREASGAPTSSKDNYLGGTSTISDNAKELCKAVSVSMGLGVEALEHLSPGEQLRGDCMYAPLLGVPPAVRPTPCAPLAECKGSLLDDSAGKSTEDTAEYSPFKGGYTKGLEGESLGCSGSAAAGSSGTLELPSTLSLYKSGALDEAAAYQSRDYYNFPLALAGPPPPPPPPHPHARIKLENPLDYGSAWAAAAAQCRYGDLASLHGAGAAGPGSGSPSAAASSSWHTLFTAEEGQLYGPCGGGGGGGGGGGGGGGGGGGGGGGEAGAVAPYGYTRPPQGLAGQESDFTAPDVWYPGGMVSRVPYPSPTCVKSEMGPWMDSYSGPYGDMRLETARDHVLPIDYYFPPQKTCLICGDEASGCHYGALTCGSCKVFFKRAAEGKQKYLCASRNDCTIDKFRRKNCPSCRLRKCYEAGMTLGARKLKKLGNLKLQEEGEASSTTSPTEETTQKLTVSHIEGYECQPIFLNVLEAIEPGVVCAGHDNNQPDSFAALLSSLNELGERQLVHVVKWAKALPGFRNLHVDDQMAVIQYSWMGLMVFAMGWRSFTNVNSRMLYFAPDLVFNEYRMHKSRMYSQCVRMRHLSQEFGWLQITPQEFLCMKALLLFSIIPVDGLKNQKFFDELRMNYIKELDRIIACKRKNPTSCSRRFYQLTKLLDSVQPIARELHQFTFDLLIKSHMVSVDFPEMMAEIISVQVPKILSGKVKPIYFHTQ

Take `C[C@](O)(COc1ccc(C#N)cc1)C(=O)Nc1ccc(C#N)c(C(F)(F)F)c1` [Formula IX, (S)-N-(4-Cyano-3-(trifluoromethyl)phenyl)-3-(4-cyanophenoxy)-2-hydroxy-2-methylpropanamide]: the “AR agonist activity (transactivation)” value on AR is recorded as “agonists of AR”. Besides, the “receptor-mediated transactivation of ERα (stimulate or inhibit)” value at ER-α was “do not stimulate or inhibit”. Further, the “receptor-mediated transactivation of GR (stimulate or inhibit)” value at GR is on record as “do not stimulate or inhibit”. The “receptor-mediated transactivation of MR (stimulate or inhibit)” value at MR was “do not stimulate or inhibit”. Besides, the “proliferation (number of cells)” value in assay [1] was “inhibited the proliferation”.

On to `C[C@](O)(COc1ccc(C#N)cc1)C(=O)Nc1ccc(C#N)c(Cl)c1` [Formula VIII, (S)-N-(3-chloro-4-cyanophenyl)-3-(4-cyanophenoxy)-2-hydroxy-2-methylpropanamide], for which the “AR agonist activity (transactivation)” value at AR is “agonists of AR”. The “receptor-mediated transactivation of ERα (stimulate or inhibit)” value at ER-α is on record as “do not stimulate or inhibit”. Besides, the “activation of ER-α” value on ER-α (agonist mode, highest tested concentration) was “failed to activate”. For the same compound, on ER-α (antagonist mode), the “17β-estradiol-induced ER-α activity” value is listed as “failed to alter”. Besides, the “receptor-mediated transactivation of GR (stimulate or inhibit)” value on GR is given as “do not stimulate or inhibit”. The GR-mediated transactivation result at GR (setting [2]) was “did not induce”. At GR (antagonist mode), the “dexamethasone-induced GR-mediated transactivation” value was “failed to alter”. In addition, at MR, the “receptor-mediated transactivation of MR (stimulate or inhibit)” value is reported as “do not stimulate or inhibit”. The MR-mediated transactivation entry on MR (setting [2]) was “did not induce”. Further, the “aldosterone-induced MR-mediated transactivation” value at MR (antagonist mode) is “failed to alter”. Besides, the “proliferation (number of cells)” value in assay [1] is given as “inhibited the proliferation”.
